Test results: patent publication US11161839B2, “2-quinolone derived inhibitors of BCL6” (Cancer Research Technology Limited, priority 2017, dated 2021)

Assays:
[1] = target: human BCL6 BTB domain (Trx-6xHis-BCL6) (Homo sapiens (Human), UniProt P41182); assay: HTRF in vitro assay (BCL6 BTB domain / BCOR-AF633 peptide); assay type: binding; conditions: for IC50: read-out: HTRF pIC50 (converted)
Protocol: The % inhibition at each concentration was calculated by normalising FRET ratio to the appropriate high (DMSO with all reagents) and low (DMSO without BCL6) controls.

[2] = target: BCL6-NCOR2(SMRT) corepressor protein-protein interaction (Homo sapiens (Human), UniProt P41182); assay: NanoBRET cell assay in transfected HEK293T cells; assay type: cell-based; conditions: further generated data (Table 2b); HEK293T cells, 6 hr; read-out: NanoBRET cell pIC50 (converted)
[3] = further generated data (Table 1b), 1 nM Trx-6xHis-BCL6, 0.5 nM anti-6xHis-Terbium cryptate

| SMILES | HTRF pIC50 [1, 3] | IC50 [2] | IC50 [1, 3] | HTRF pIC50 ([1]; initially generated data (Table 1a), 10 nM Trx-6xHis-BCL6, 1 nM anti-6xHis-Terbium cryptate) |
| --- | --- | --- | --- | --- |
| CC(Nc1cc(=O)n(C)c2ccc(Nc3nc(N4CCC(F)(F)CC4)ncc3Cl)cc12)c1ncccn1 (stereo not shown) [Example 17i, 6-((5-chloro-2-(4,4-difluoropiperidin-1-yl)pyrimidin-4-yl)amino)-1-methyl-4-((1-(pyrimidin-2-yl)ethyl)amino)quinolin-2(1H)-one] | 6.20 | 2.82 µM |  |  |
| CCC(C)(Nc1cc(=O)n(C)c2ccc(Nc3ccnc(Cl)c3C#N)cc12)c1ncccn1 (stereo not shown) [Example 24c, 2-chloro-4-((1-methyl-2-oxo-4-((2-(pyrimidin-2-yl)butan-2-yl)amino)-1,2-dihydroquinolin-6-yl)amino)nicotinonitrile] | 6.45 | 5.13 µM |  |  |
| Cn1c(=O)cc(NC(C)(C)c2ncc(C3CC3)cn2)c2cc(Nc3cc(C(=O)N4CCC4)nc(Cl)c3C#N)ccc21 [Example 8b, 6-(azetidine-1-carbonyl)-2-chloro-4-((4-((2-(5-cyclopropylpyrimidin-2-yl)propan-2-yl)amino)-1-methyl-2-oxo-1,2-dihydroquinolin-6-yl)amino)nicotinonitrile] | 7.86 | 0.741 µM |  |  |
| CC(Nc1nc(=O)n(C)c2ccc(Nc3ccnc(Cl)c3C#N)cc12)c1ncccn1 (stereo not shown) [Example 10h] | 7.10 | 8.91 µM |  |  |
| C[C@@H](Nc1nc(=O)n(C)c2ccc(Nc3ccnc(Cl)c3Cl)cc12)C1CC1 [Example 6d, (R)-4-((1-cyclopropylethyl)amino)-6-((2,3-dichloropyridin-4-yl)amino)-1-methylquinazolin-2(1H)-one] | 6.09 | 1.82 µM |  |  |
| COc1cc(Nc2nc(N3CCC(C(=O)N(C)C)CC3)ncc2Cl)cc2c(NC(C)(C)c3ncccn3)cc(=O)n(C)c12 [Example 12c] |  | 3.31 µM | 0.525 µM |  |
| CC(Nc1cc(=O)n(C)c2ccc(Nc3cc(-n4cc(CCO)cn4)ncc3Cl)cc12)c1ncccn1 (stereo not shown) [Example 15i, 6-((5-chloro-2-(4-(2-hydroxyethyl)-1H-pyrazol-1-yl)pyridin-4-yl)amino)-1-methyl-4-((1-(pyrimidin-2-yl)ethyl)amino)quinoline-2(1H)-one] | 6.58 | 1.55 µM |  |  |
| CC(Nc1cc(=O)n(C)c2ccc(Nc3cc(C(=O)N(C)C)nc(Cl)c3C#N)cc12)c1ncccn1 (stereo not shown) [Example 19b] | 6.99 | 5.25 µM |  |  |
| CC(Nc1cc(=O)n(C)c2ccc(Nc3ccnc(Cl)c3C#N)cc12)c1ccccn1 (stereo not shown) [Example 11d, 2-chloro-4-((1-methyl-2-oxo-4-((1-(pyridin-2-yl)ethyl)amino)-1,2-dihydroquinolin-6-yl)amino)nicotinonitrile: formic acid (1:1)] | 6.34 | 4.37 µM |  |  |
| COCC(C)(C)Nc1cc(=O)n(C)c2ccc(Nc3nc(-n4nc(C)cc4C)ncc3Cl)cc12 [Example 14e, 6-((5-chloro-2-(3,5-dimethyl-1H-pyrazol-1-yl)pyrimidin-4-yl)amino)-4-((1-methoxy-2-methylpropan-2-yl)amino)-1-methylquinolin-2(1H)-one] | 6.54 | 10 µM |  |  |
| CC(Nc1nc(=O)n(C)c2ccc(Nc3nc(N4CCC(C(=O)N(C)C)CC4)ncc3Cl)cc12)c1ncccn1 (stereo not shown) [Example 12d, 1-(5-chloro-4-((1-methyl-2-oxo-4((1-(pyrimidin-2-yl)ethyl)amino)-1,2-dihydroquinazolin-6-yl)amino)pyrimidin-2-yl)-N,N-dimethylpiperidine-4-carboxamide] | 6.78 | 11.2 µM |  |  |
| CN(C)C(=O)c1cc(Nc2ccc3c(c2)c(NC(C)(C)c2ncccn2)cc(=O)n3C)c(C#N)c(Cl)n1 [Example 19a, 6-chloro-5-cyano-N,N-dimethyl-4-((1-methyl-2-oxo-4-((2-(pyrimidin-2-yl)propan-2-yl)amino)-1,2-dihydroquinolin-6-yl)amino)picolinamide] | 7.55 | 2.75 µM |  |  |
| Cn1c(=O)cc(NC(C)(C)c2ccccn2)c2cc(Nc3ccnc(Cl)c3C#N)ccc21 [Example 11b, 2-chloro-4-((1-methyl-2-oxo-4-((2-(pyridin-2-yl)propan-2-yl)amino)-1,2-dihydroquinolin-6-yl)amino)nicotinonitrile:formic acid (1:1)] | 6.52 | 1.29 µM |  |  |
| CC(Nc1cc(=O)n(CCN2C(=O)CCC2=O)c2ccc(Nc3ccnc(Cl)c3C#N)cc12)c1ncccn1 (stereo not shown) [Example 1c, 2-chloro-4-[[1-[2-(2,5-dioxopyrrolidin-1-yl)ethyl]-2-oxo-4-(1-pyrimidin-2-ylethylamino)-6-quinolyl]amino]pyridine-3-carbonitrile] | 6.73 | 22.4 µM |  | 6.63 |
| CNC(=O)c1cc(Nc2ccc3c(c2)c(NC2CCC2OC)cc(=O)n3C)c(C#N)c(Cl)n1 (racemic) [Example 23a, rac-6-chloro-5-cyano 4-((4-(((1R,2R)-2-methoxycyclobutyl)amino)-1-methyl-2-oxo-1,2-dihydroquinolin-6-yl)amino)-N-methylpicolinamide or rac-6-chloro-5-cyano-4-((4-(((1R,2S)-2-methoxycyclobutyl)amino)-1-methyl-2-oxo-1,2-dihydroquinolin-6-yl)amino)-N-methylpicolinamide] |  | 6.76 µM | 0.38 µM |  |
| CN(C)C(=O)C1CCN(c2ncc(Cl)c(Nc3ccc4c(c3)c(NC3(C#N)CC3)cc(=O)n4C)n2)CC1 [Example 16b, 1-(5-chloro-4-((4-((1-cyanocyclopropyl)amino)-1-methyl-2-oxo-1,2-dihydroquinolin-6-yl)amino)pyrimidin-2-y1)-N,N-dimethylpiperidine-4-carboxamide] | 6.37 | 5.01 µM |  |  |
| CC(Nc1cc(=O)n(C)c2ccc(Nc3cc(N4CCC(F)(F)CC4)ncc3Cl)cc12)c1ncccn1 (stereo not shown) [Example 15h, 6-((5-chloro-2-(4,4-difluoropiperidin-1-yl)pyridin-4-yl)amino)-1-methyl-4-((1-(pyrimidin-2-yl)ethyl)amino)quinolin-2(1H)-one] | 6.21 | 6.92 µM |  |  |
| C[C@@H]1CN(c2ncc(Cl)c(Nc3ccc4c(c3)c(NC(C)(C)c3ncccn3)cc(=O)n4C)n2)C[C@H](C)O1 [Example 12f, 6-((5-chloro-2-((2S,6R)-2,6-dimethylmorpholino)pyrimidin-4-yl)amino)-1-methyl-4-((2-(pyrimidin-2-yl)propan-2-yl)amino)quinolin-2(1H)-one] | 6.57 | 2.45 µM |  |  |
| CC(Nc1cc(=O)n(C)c2ccc(Nc3ccnc(Cl)c3C#N)cc12)c1cc2ccccc2cn1 (stereo not shown) [Example 24e, 2-chloro-4-((4-((1-(isoquinolin-3-yl)ethyl)amino)-1-methyl-2-oxo-1,2-dihydroquinolin-6-yl)amino)nicotinonitrile] | 6.38 | 3.47 µM |  |  |
| CNC(=O)c1cc(Nc2ccc3c(c2)c(N[C@H](C)C2CC2)cc(=O)n3C)c(C#N)c(Cl)n1 [Example 10i, (R)-6-chloro-5-cyano-4-((4-((1-cyclopropylethyl)amino)-1-methyl-2-oxo-1,2-dihydroquinolin-6-yl)amino)-N-methylpicolinamide] | 6.96 | 1.78 µM |  |  |
| CC(Nc1nc(=O)n(C)c2ccc(Nc3nc(N4CCC(F)(F)CC4)ncc3Cl)cc12)c1ncccn1 (stereo not shown) [Example 12a, 6-((5-Chloro-2-(4,4-difluoropiperidin-1-yl)pyrimidin-4-yl)amino)-1-methyl-4-((1-(pyrimidin-2-yl)ethyl)amino)quinazolin-2(1H)-one] |  | 2.34 µM | 0.191 µM |  |
| CC(Nc1cc(=O)n(CC2CC2)c2ccc(Nc3ccnc(Cl)c3Cl)cc12)c1ncccn1 (stereo not shown) [Example 6g, 1-(cyclopropylmethyl)-6-[(2,3-dichloro-4-pyridyl)amino]-4-(1-pyrimidin-2-ylethylamino)quinolin-2-one] | 6.25 | 7.41 µM |  |  |
| CC(Nc1cc(=O)n(CC2CC2)c2ccc(Nc3ccnc(Cl)c3C#N)cc12)c1ncccn1 (stereo not shown) [Example 11h, 2-chloro-4-((1-(cyclopropylmethyl)-2-oxo-4-((1-(pyrimidin-2-yl)ethyl)amino)-1,2-dihydroquinolin-6-yl)amino)nicotinonitrile] | 6.65 | 2.82 µM |  |  |
| Cn1c(=O)cc(NC2(c3ncccn3)CCOC2)c2cc(Nc3ccnc(Cl)c3C#N)ccc21 (stereo not shown) [Example 19i, 2-chloro-4-((1-methyl-2-oxo-4-((3-(pyrimidin-2-yl)tetrahydrofuran-3-yl)amino)-1,2-dihydroquinolin-6-yl)amino)nicotinonitrile] | 6.38 | 9.33 µM |  |  |
| COCC1CCN1c1ncc(Cl)c(Nc2ccc3c(c2)c(N[C@H](C)C2CC2)cc(=O)n3C)n1 (stereo partly drawn) [Example 26b, 6-((5-chloro-2-(2-(methoxymethyl)azetidin-1-yl)pyrimidin-4-yl)amino)-4-(((R)-1-cyclopropylethyl)amino)-1-methylquinolin-2(1H)-one: formic acid (1:1)] | 6.31 | 2.69 µM |  |  |
| C[C@@H](Nc1cc(=O)n(C)c2ncc(Nc3ccnc(Cl)c3C#N)cc12)C1CC1 [Example 24d, (R)-2-chloro-4-((5-((1-cyclopropylethyl)amino)-8-methyl-7-oxo-7,8-dihydro-1,8-naphthyridin-3-yl)amino)nicotinonitrile] | 6.53 | 4.47 µM |  |  |
| Cn1c(=O)cc(NC2(C#N)CC2)c2cc(Nc3ccnc(Cl)c3C#N)ccc21 [Example 24b, 2-chloro-4-((4-((1-cyanocyclopropyl)amino)-1-methyl-2-oxo-1,2-dihydroquinolin-6-yl)amino)nicotinonitrile] | 6.49 | 4.79 µM |  |  |
